According to PMC12376241 (2025):

What was measured:
[1] = test system: T1 (RNA, aptamer) GGGAGAGGAGGGAGAUAGAUAUCAACUAUCGCUUGUGAGGCUCGAUCUUUAUGUGCCCCUCCUUCAGGUUUGGCGUCUUUCGUGGAUGCCACAGGAC; assay: ITC; settings: 1 mM ligand into 50 μM RNA
[2] = test system: T1 (RNA, aptamer) GGGAGAGGAGGGAGAUAGAUAUCAACUAUCGCUUGUGAGGCUCGAUCUUUAUGUGCCCCUCCUUCAGGUUUGGCGUCUUUCGUGGAUGCCACAGGAC; assay: fluorescence polarization, displacement of Cy3-ODN; settings: 3 mM Mg2+, PBS, 0.005% Tween 20, 21 °C
[3] = test system: LR1 (RNA, aptamer) GGGAGAGGAGGGAGAUAGAUAUCAAACUAAACACUUGAGGCUCGAUCUUUAUUGUAUUUACACCAUCUUGUGCAUCAUUUCGUGGAUGCCACAGGAC; assay: fluorescence polarization, displacement of Cy3-ODN; settings: 3 mM Mg2+, PBS, 0.005% Tween 20, 21 °C; for binding: 100 nM Cy3-ODN, 500 nM RNA, tested at 100 μM
[4] = test system: I5 (RNA, aptamer) GGGAGAGGAGGGAGAUAGAUAUCAAACGAACGGCAUGAGGCUCGAUCUACGUUACCCCUCUGACGUUGGCAUUUGUGUUUCGUGGAUGCCACAGGAC; assay: fluorescence polarization, displacement of Cy3-ODN; settings: 3 mM Mg2+, PBS, apparent, 0.005% Tween 20, 21 °C, 9-nt Cy3-ODN displaced, inhibitor vs response fit
[5] = test system: LR1 (RNA, aptamer) GGGAGAGGAGGGAGAUAGAUAUCAAACUAAACACUUGAGGCUCGAUCUUUAUUGUAUUUACACCAUCUUGUGCAUCAUUUCGUGGAUGCCACAGGAC; assay: ITC; settings: 3 mM Mg2+, PBS, 1 mM ligand into 20 μM RNA, ligand-into-buffer heat subtracted
[6] = test system: LM1 (RNA, aptamer) GGGAGAGGAGGGAGAUAGAUAUCAACACUUGAACGUGAGGCUCGAUCUUUUUAGCUUUUUACUGCGGCGUUAACGGUUUUCGUGGAUGCCACAGGAC; assay: fluorescence polarization, displacement of Cy3-ODN; settings: 3 mM Mg2+, PBS, apparent, 0.005% Tween 20, 21 °C, shortened Cy3-labelled capture ODN displaced, inhibitor vs response fit
[7] = test system: LR2 (RNA, aptamer) GGGAGAGGAGGGAGAUAGAUAUCAAUUACCACGCUUGAGGCUCGAUCUUUUGCUUUGUCCAUCUAGUGUUGUCUGCGUUUCGUGGAUGCCACAGGAC; assay: fluorescence polarization, displacement of Cy3-ODN; settings: 3 mM Mg2+, PBS, 0.005% Tween 20, 21 °C, 100 nM Cy3-ODN, 500 nM RNA, 100 μM compound
[8] = test system: HDB1 (RNA, aptamer) GGGAGAGGAGGGAGAUAGAUAUCAAACCCCAUCUUGAGGCUCGAUCGGCUCGUUUUUCAGGGAUAAGUAGAUUUAGUUUUUCGUGGAUGCCACAGGAC; assay: fluorescence polarization, displacement of Cy3-ODN; settings: 3 mM Mg2+, PBS, apparent, 0.005% Tween 20, 21 °C, shortened Cy3-labelled capture ODN displaced, inhibitor vs response fit
[9] = test system: LM1 (RNA, aptamer) GGGAGAGGAGGGAGAUAGAUAUCAACACUUGAACGUGAGGCUCGAUCUUUUUAGCUUUUUACUGCGGCGUUAACGGUUUUCGUGGAUGCCACAGGAC; assay: ITC; settings: 3 mM Mg2+, PBS, 1 mM ligand into 20 μM RNA, ligand-into-buffer heat subtracted
[10] = test system: HDB2 (RNA, aptamer) GGGAGAGGAGGGAGAUAGAUAUCAAACCGGCACCUGAGGCUCGAUCUUUGUUUGCAAAGGGCAUUGCAUCGAUGUGUUUUUCGUGGAUGCCACAGGAC; assay: ITC; settings: 3 mM Mg2+, PBS, 1 mM ligand into 20 μM RNA, ligand-into-buffer heat subtracted, legend also prints HDB1
[11] = test system: LM2 (RNA, aptamer) GGGAGAGGAGGGAGAUAGAUAUCAAACUAACAGUCUGAGGCUCGAUCUUUUGCAGAAACUUUCGUCUUUUGGCUAUCUUUCGUGGAUGCCACAGGAC; assay: fluorescence polarization, displacement of Cy3-ODN; settings: 3 mM Mg2+, PBS, 0.005% Tween 20, 21 °C, 100 nM Cy3-ODN, 500 nM RNA, 100 μM compound
[12] = test system: P7 (RNA, aptamer) GGGAGAGGAGGGAGAUAGAUAUCAACAGGAACGGUUGAGGCUCGAUCAGAUACCCCUCGCUACAAUGCGGCAUUGGGUUUCGUGGAUGCCACAGGAC; assay: fluorescence polarization, displacement of Cy3-ODN; settings: 3 mM Mg2+, PBS, 0.005% Tween 20, 21 °C, 9-nt Cy3-ODN, 500 nM RNA, 0.1-1 mM compound
[13] = test system: R2 (RNA, aptamer) GGGAGAGGAGGGAGAUAGAUAUCAAGAGGUACGUAUGAGGCUCGAUCGGAAGGCUGGUCUAGGUCCCGUCCUGACCGUUUCGUGGAUGCCACAGGAC; assay: fluorescence polarization, displacement of Cy3-ODN; settings: 3 mM Mg2+, PBS, 0.005% Tween 20, 21 °C, 9-nt Cy3-ODN, 500 nM RNA, 0.1-1 mM compound
[14] = test system: R3 (RNA, aptamer) GGGAGAGGAGGGAGAUAGAUAUCAAGUCGGAGGUAUGAGGCUCGAUCACGAAGAAGGCCGAUUGGGUUACCCUCCUUUUUCGUGGAUGCCACAGGAC; assay: fluorescence polarization, displacement of Cy3-ODN; settings: 3 mM Mg2+, PBS, apparent, 0.005% Tween 20, 21 °C, 9-nt Cy3-ODN displaced, inhibitor vs response fit
[15] = test system: R3 (RNA, aptamer) GGGAGAGGAGGGAGAUAGAUAUCAAGUCGGAGGUAUGAGGCUCGAUCACGAAGAAGGCCGAUUGGGUUACCCUCCUUUUUCGUGGAUGCCACAGGAC; assay: ITC; settings: 300 μM ligand into 20 μM RNA

In the case of `Cn1c(=O)c2[nH]cnc2n(C)c1=O`, the Kd [1] is reported as 70.3 ± 6.33 µM, the Kd ([2]; apparent, 9-nt Cy3-ODN displaced, inhibitor vs response fit) is reported as ~ 54 μM and the binding [3] is reported as “no”.
`N=C(N)NCCC[C@H](N)C(=O)O` was tested, and the binding [3] was “no”.
`O=P(O)(O)O[C@H]1[C@@H](OP(=O)(O)O)[C@H](OP(=O)(O)O)[C@@H](OP(=O)(O)OP(=O)(O)O)[C@H](OP(=O)(O)O)[C@H]1OP(=O)(O)O` was tested, and the Kd [4] was ~ 76 μM.
`NC[C@@H]1O[C@H](O[C@H]2[C@@H](O)[C@H](O[C@@H]3[C@@H](O)[C@H](N)C[C@H](N)[C@H]3O[C@H]3O[C@H](CN)[C@@H](O)[C@H](O)[C@H]3N)O[C@@H]2CO)[C@H](N)[C@@H](O)[C@@H]1O` was tested, and the Kd [5] was 34.7 ± 1.97 µM, the Kd [6] was ~ 4 μM and the binding [7] was “yes”. For the same compound, the Kd [8] was ~ 10 μM, the Kd [9] was 38.0 ± 2.10 µM and the Kd [10] was 55.9 ± 3.57 µM. The binding [11] was “yes” and the Kd ([3]; apparent, shortened Cy3-labelled capture ODN displaced, inhibitor vs response fit) was ~ 3 μM.
`CC1(C)S[C@@H]2[C@H](NC(=O)[C@H](N)c3ccccc3)C(=O)N2[C@H]1C(=O)O` was tested, and the binding [3] was “no”.
For `Nc1ncnc2c1ncn2[C@@H]1O[C@@H]2COP(=O)(O)O[C@H]2[C@H]1O`, the binding [3] was “no”.
`Cn1c(=O)c2c(ncn2C)n(C)c1=O` was tested, and the binding ([1]; no interaction) was “no” and the binding ([2]; 9-nt Cy3-ODN tracer, no binding observed) was “no”.
`Nc1nc2c(ncn2[C@@H]2O[C@H](COP(=O)(O)OP(=O)(O)O)[C@@H](OP(=O)(O)OP(=O)(O)O)[C@H]2O)c(=O)[nH]1` was tested, and the binding [12] was “weak”.
In the case of `NC[C@H]1O[C@H](O[C@H]2[C@H](O)[C@@H](O[C@H]3O[C@H](CO)[C@@H](O)[C@H](N)[C@H]3O)[C@H](N)C[C@@H]2N)[C@H](N)[C@@H](O)[C@@H]1O`, the Kd [5] is reported as 130.0 ± 30.9 µM.
`Cc1cc2nc3c(=O)[nH]c(=O)nc-3n(C[C@H](O)[C@H](O)[C@H](O)CO)c2cc1C` was tested, and the binding [13] was “weak”, the Kd [14] was ~ 5 μM and the Kd [15] was 9.88 ± 1.09 µM.
